Data reported in paper PMC3478282, “Probing the Putative Active Site of YjdL: An Unusual Proton-Coupled Oligopeptide Transporter from E. coli” (PLoS ONE, 2012).
Positions count from the first letter of the chain named. Residues, ends and D or L forms follow the SMILES beside them.

Columns and labels:
Assay type in all cases: cell-based, E. coli
[1] = target: T1, YjdL Ala281Phe (Escherichia coli, UniProt P39276, A281F); test: β-Ala-Lys(AMCA) uptake and inhibition assay, YjdL Ala281Phe; settings: for IC50: 0.2 mM β-Ala-Lys(AMCA), 5 min incubation, pH 6.5, ±SEM, n≥3
T1 construct: host or cells: E. coli BL21(DE3)pLysS
T1 sequence (P39276 1-485 A281F): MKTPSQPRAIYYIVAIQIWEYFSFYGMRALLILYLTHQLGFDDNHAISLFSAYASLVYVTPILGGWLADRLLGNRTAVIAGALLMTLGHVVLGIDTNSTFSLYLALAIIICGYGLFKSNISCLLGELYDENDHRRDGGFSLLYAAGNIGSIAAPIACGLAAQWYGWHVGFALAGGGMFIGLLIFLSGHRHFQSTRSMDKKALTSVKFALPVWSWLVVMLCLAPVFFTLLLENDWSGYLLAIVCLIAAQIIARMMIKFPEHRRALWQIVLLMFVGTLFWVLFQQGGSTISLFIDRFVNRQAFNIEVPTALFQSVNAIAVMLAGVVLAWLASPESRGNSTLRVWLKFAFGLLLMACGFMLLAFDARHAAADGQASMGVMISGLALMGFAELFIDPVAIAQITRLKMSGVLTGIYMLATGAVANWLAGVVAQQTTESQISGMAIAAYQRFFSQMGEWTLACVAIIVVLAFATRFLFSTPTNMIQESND
Protocol: (§1) Plasmids were transformed into E. coli BL21(DE3)pLysS cells by heat shock and transformants were selected on agar plates containing 100 µg/mL ampicillin and 34 µg/mL chloramphenicol. Single transformants were inoculated into 2 mL LB-media with antibiotics as above and grown overnight. The cultures were diluted 1∶50 in 5 mL LB-media with antibiotics as above, and at an OD600 of 0.5–0.8 protein expression was induced by the addition of 1 mM isopropyl β-D-1-thiogalactopyranoside (IPTG). The cells were harvested after three hours of induction by centrifugation and resuspended in uptake buffer (50 mM MES pH 6.5, 140 mM NaCl, 5.4 mM KCl, 1.8 mM CaCl2, 0.8 mM MgSO4, and 5 mM glucose).
(§2) Uptake assays were performed as previously described, [20]. In a final assay volume of 100 µL; 0.2 mM β-Ala-Lys-N-7-amino-4-methylcoumarin-3-acetic acid (β-Ala-Lys(AMCA), Biotrend) (10 µL) and various concentrations of ligands (purchased from Bachem or Sigma-Aldrich) or uptake buffer (50 µL) were incubated with bacterial cell suspension (OD600 = 10, 40 µL) at 37°C. After 5 min, the uptake was stopped by addition of 500 µL ice-cold uptake buffer followed by immediate centrifugation and washing twice in ice-cold uptake buffer. Finally the cell pellet was resuspended in 100 µL uptake buffer, and the uptake was quantified by fluorescence measurements (excitation at 340 nm and emission at 460 nm) on a Safire 2 fluorimeter. Non-specific uptake was measured as described above on IPTG-induced E. coli BL21(DE3)pLysS cells harboring the empty pTTQ18 vector. All uptake assay experiments were reproduced at least three times independently and data analyses were performed using GraphPad Prism ver. 5.

[2] = target: T2, YdgR Tyr71Phe (Escherichia coli, UniProt P77304, Y71F); test: β-Ala-Lys(AMCA) uptake and inhibition assay, YdgR Tyr71Phe
T2 construct: host or cells: E. coli BL21(DE3)pLysS
T2 sequence (P77304 whole entry Y71F): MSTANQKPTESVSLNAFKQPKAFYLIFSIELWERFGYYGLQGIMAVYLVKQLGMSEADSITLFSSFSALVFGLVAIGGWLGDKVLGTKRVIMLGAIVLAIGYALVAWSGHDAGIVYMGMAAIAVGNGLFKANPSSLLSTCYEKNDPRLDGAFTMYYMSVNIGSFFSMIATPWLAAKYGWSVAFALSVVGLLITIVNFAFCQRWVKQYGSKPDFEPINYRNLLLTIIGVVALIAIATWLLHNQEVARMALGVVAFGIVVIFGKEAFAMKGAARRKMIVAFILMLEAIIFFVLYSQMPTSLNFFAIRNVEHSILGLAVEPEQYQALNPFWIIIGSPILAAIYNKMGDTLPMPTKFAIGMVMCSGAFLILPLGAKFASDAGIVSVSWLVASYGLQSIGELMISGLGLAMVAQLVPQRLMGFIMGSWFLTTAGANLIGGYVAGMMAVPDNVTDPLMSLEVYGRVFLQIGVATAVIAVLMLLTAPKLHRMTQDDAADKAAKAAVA
Protocol: as §1
as §2, with “After 5 min, the uptake was stopped by addition of 500 µL ice-cold uptake buffer followed by immediate centrifugation and washing twice in ice-cold uptake buffer.” left out, “All uptake assay experiments were reproduced at least three times independently and data analyses were performed using GraphPad Prism ver. 5.” left out

[3] = target: T3, YjdL Tyr21Phe (Escherichia coli, UniProt P39276, Y21F); test: β-Ala-Lys(AMCA) uptake and inhibition assay, YjdL Tyr21Phe; settings: 0.2 mM β-Ala-Lys(AMCA), 5 min incubation, pH 6.5; ±SEM, n≥3
T3 construct: expressed in transfected cells; host or cells: E. coli BL21(DE3)pLysS, pTTQ18-yjdL mutant (QuikChange)
T3 sequence (P39276 1-485 Y21F): T1 sequence (P39276 1-485 A281F) with Y21F, F281A
Protocol: as §1, §2

[4] = target: T4, WT-YjdL (Escherichia coli, UniProt P39276); test: cell-based; settings: for IC50: IC50 (inhibition of β-Ala-Lys(AMCA) uptake)
T4 construct: expressed in transfected cells; host or cells: E. coli BL21(DE3)pLysS, pTTQ18-yjdL, IPTG-induced
T4 sequence (P39276 1-485): T1 sequence (P39276 1-485 A281F) with F281A
Protocol: as §1, with “The cells were harvested after three hours of induction by centrifugation and resuspended in uptake buffer (50 mM MES pH 6.5, 140 mM NaCl, 5.4 mM KCl, 1.8 mM CaCl2, 0.8 mM MgSO4, and 5 mM glucose).” left out
as §2

[5] = target: T5, YdgR Tyr38Phe (Escherichia coli, UniProt P77304, Y38F); test: β-Ala-Lys(AMCA) uptake and inhibition assay, YdgR Tyr38Phe
T5 construct: host or cells: E. coli BL21(DE3)pLysS
T5 sequence (P77304 whole entry Y38F): as the sequence (P77304 whole entry Y71F) above, with Y38F, F71Y counted along it
Protocol: as §1
as §2, with “After 5 min, the uptake was stopped by addition of 500 µL ice-cold uptake buffer followed by immediate centrifugation and washing twice in ice-cold uptake buffer.” left out, “All uptake assay experiments were reproduced at least three times independently and data analyses were performed using GraphPad Prism ver. 5.” left out

[6] = target: T6, YdgR Tyr292Ala (Escherichia coli, UniProt P77304, Y292A); test: β-Ala-Lys(AMCA) uptake and inhibition assay, YdgR Tyr292Ala
T6 construct: host or cells: E. coli BL21(DE3)pLysS
T6 sequence (P77304 whole entry Y292A): as the sequence (P77304 whole entry Y71F) above, with F71Y, Y292A counted along it
Protocol: as §1
as §2, with “After 5 min, the uptake was stopped by addition of 500 µL ice-cold uptake buffer followed by immediate centrifugation and washing twice in ice-cold uptake buffer.” left out, “All uptake assay experiments were reproduced at least three times independently and data analyses were performed using GraphPad Prism ver. 5.” left out

[7] = 0.2 mM β-Ala-Lys(AMCA), 5 min incubation, pH 6.5, ±SEM, n≥3
[8] = 0.2 mM, 5 min, pH 6.5 (Figure 4)

Compound | IC50 [1] | IC50 [2, 7] | IC50 [3] | IC50 at pH 6.5 (50 mM MES) relative to previous studies at pH 7.4 (25 mM Tris/HEPES), WT-YjdL [4] | IC50 ([4]; WT-YjdL a) | IC50 ([4]; WT-YjdL b) | IC50 ([5]; 0.5 mM β-Ala-Lys(AMCA), 15 min incubation, pH 6.5, ±SEM, n≥3, read-out: IC50 (inhibition of β-Ala-Lys(AMCA) uptake), YdgR Tyr38Phe b) | IC50 [6, 7] | increase of β-Ala-Lys(AMCA) uptake compared to WT-YjdL, Ala281Phe ([1]; 0.2 mM, 5 min, pH 6.5 (Figure 3)) | β-Ala-Lys(AMCA) uptake level, YdgR Tyr71Phe [2, 8] | Kt ([4]; WT YjdL, data not shown) | β-Ala-Lys(AMCA) uptake level, YdgR Tyr38Phe [5, 8] | increase of β-Ala-Lys(AMCA) uptake, YdgR Tyr292Ala [6, 8]
C[C@H](N)C(=O)N[C@@H](C)C(=O)O [Ala-Ala] (H-Ala-Ala-OH) | > 50000 µM | 370 ± 30 µM | 4500 ± 300 µM | eight | 2800 ± 600 µM | 2200 ± 100 µM | 920 ± 60 µM | 590 ± 50 µM |  |  |  |  | 
C[C@H](N)C(=O)N[C@@H](CCCCN)C(=O)O [Ala-Lys] (H-Ala-Lys-OH) | 260 ± 20 µM |  | 450 ± 70 µM |  | 280 ± 10 µM | 890 ± 160 µM |  |  |  |  |  |  | 
C[C@H](NC(=O)[C@@H](N)Cc1ccc(O)cc1)C(=O)O [Tyr-Ala] | 33200 ± 3400 µM |  | 4700 ± 800 µM | same | 2400 ± 400 µM | 2400 ± 200 µM |  |  |  |  |  |  | 
β-Ala-Lys-N-7-amino-4-methylcoumarin-3-acetic acid [β-Ala-Lys(AMCA)] |  |  |  |  |  |  |  |  | ~3 fold | 27% | ~5 mM | 10% | ~4 fold
